Measured values as given in patent EP0033980A1, “Derivatives of 2-methylpropionic acid, process for their preparation and pharmaceutical compositions containing them” (SCHIAPPARELLI FARMACEUTICI S.p.A., priority 1980, dated 1981).

System: Triglycerid- und Cholesteringehaltes im Blut
Assay: Reduction of blood triglyceride and cholesterol content after 10 days of daily peroral treatment, versus untreated controls
Format: in vivo
Details: Ratten, 10 Tage, vs. Blindversuche
Description: Diese Wirkungen wurden gegenüber der in der Therapie der Hyperlipidämie (übermäßiger Lipidgehalt im Blut) und Hypercholesterinämie (übermäßiger Cholesteringehalt im Blut) verbreitet angewandten und anerkannt gut wirksamen bekannten Vergleichssubstanz 2-(4'-Chlorphenoxy)-2-me- thylpropionsäure [Clofibrat] bestimmt.
Es wurden vorherbestimmte tägliche Dosen einer erfin-dungsgemäßen Verbindung Laboratoriumstieren (üblicherweise in Gruppen von je 6 Tiere unterteilten Ratten) peroral verabreicht, während die Vergleichssubstanz 2-(4'-Chlor- phenoxy)-2-methylpropionsäure [Clofibrat] in einser Dosis von 130 mg/kg/Tag ebenfalls peroral verabreicht wurde. Die Behandlung wurde 10 Tage fortgesetzt, dann wurden die Tiere geopfert und ihr Blut wurde gesammelt und der Bestimmung seines Triglycerid- und Cholesteringehaltes unterzogen. Die erhaltenen Ergebnisse, ausgedrückt als prozentuale Verminderung des Triglycerid- und Cholesteringehaltes im Blut (prozentuale Hemmung der Bildung des Triglycerid- und Cholesteringehaltes im Blut) gegenüber den Blindversuchen (das heißt den Ratten, welchen weder eine erfindungsgemäße Verbindung noch die Vergleichssubstanz verabreicht wurde), sind in der folgenden Tabelle zusammengestellt.

CCOC(=O)C(C)(C)Oc1ccc(-c2ccc(F)cc2F)cc1 [Beispiel 2, 2-(2",4"-Difluordiphenyl-4'-yloxy)-2--methylpropionsäureäthylester]
Verminderung des Cholesteringehaltes in % (peroral, 35 mg/kg/Tag): 23%
Verminderung des Triglyceridgehaltes in % (peroral, 35 mg/kg/Tag): 36%
Verminderung des Cholesteringehaltes in % (peroral, 50 mg/kg/Tag): 30%
Verminderung des Triglyceridgehaltes in % (peroral, 50 mg/kg/Tag): 29%
Verminderung des Cholesteringehaltes in % (peroral, 2,5 mg/kg/Tag): 11%
Verminderung des Triglyceridgehaltes in % (peroral, 2,5 mg/kg/Tag): 22%
